Measured values: paper PMC8078842 (PLoS Neglected Tropical Diseases, 2021)
“And” between values parts separate entries of the source, which are not always exact repeats. Equal entries are not always repeated.

Experiment: In situ brain/choroid plexus perfusion (10 or 30 minutes) with capillary depletion
Conditions: for RTISSUE/PLASMA% (mean±SEM) Caudate putamen / RTISSUE/PLASMA% (mean±SEM) Cerebellum / RTISSUE/PLASMA% (mean±SEM) Choroid plexus / RTISSUE/PLASMA% (mean±SEM) Corpus callosum / RTISSUE/PLASMA% (mean±SEM) Frontal cortex / RTISSUE/PLASMA% (mean±SEM) Hippocampus / RTISSUE/PLASMA% (mean±SEM) Homogenate / RTISSUE/PLASMA% (mean±SEM) Hypothalamus / RTISSUE/PLASMA% (mean±SEM) Occipital cortex / RTISSUE/PLASMA% (mean±SEM) Pellet / RTISSUE/PLASMA% (mean±SEM) Pineal gland / RTISSUE/PLASMA% (mean±SEM) Pituitary gland / RTISSUE/PLASMA% (mean±SEM) Pons / RTISSUE/PLASMA% (mean±SEM) Supernatant / RTISSUE/PLASMA% (mean±SEM) Thalamus / RTISSUE/PLASMA% (mean ± SEM) of [^3H]pentamidine: not corrected for vascular space; for RTISSUE/PLASMA% (mean ± SEM) of [^3H]pentamidine: 30 min perfusion
[1] = 15.7 nM, 10 minutes perfusion, corrected for vascular space
[2] = 15.7 nM, 10 minutes perfusion, corrected for vascular space, listed as [^3H]pentamidine
[3] = 10 minutes perfusion, listed as Control A [^3H]pentamidine
[4] = 10 minutes perfusion, listed as Control B [^3H]pentamidine

With [^3H(G)]pentamidine the “RCORR TISSUE% caudate putamen” value [1] was 4.02 (± 1.03) %, the “RCORR TISSUE% cerebellum” value [1] was 3.82 (± 0.64) % and the “RCORR TISSUE% choroid plexus” value [1] was 490.9 (± 103.1) %. For the same substance, the “RCORR TISSUE% corpus callosum” value [1] was 6.73 (± 2.65) %, the “RCORR TISSUE% frontal cortex” value [1] was 4.29 (± 0.93) % and the “RCORR TISSUE% hippocampus” value [1] was 4.37 (± 0.97) %. The “RCORR TISSUE% homogenate” value [1] was 4.61 (± 0.94) %, the “RCORR TISSUE% hypothalamus” value [1] was 5.56 (± 1.58) % and the “RCORR TISSUE% occipital cortex” value [1] was 4.03 (± 0.98) %. For the same substance, the “RCORR TISSUE% pellet” value [1] was 12.54 (± 1.74) %, the “RCORR TISSUE% pineal gland” value [1] was 284.7 (± 81.4) % and the “RCORR TISSUE% pons” value [1] was 7.16 (± 1.75) %. The “RCORR TISSUE% supernatant” value [1] was “less than 2%”, the “RCORR TISSUE% thalamus” value [1] was 4.76 (± 0.91) % and the “RCORR TISSUE% pituitary gland” value [2] was 182.75(± 29.6) % and 182.75(± 37.5) %. For the same substance, the “RCORR TISSUE% supernatant” value [2] was 1.99 (± 0.45) %, the “RTISSUE/PLASMA% (mean±SEM) Caudate putamen” value [3] was 4.08 (± 0.84) % and the “RTISSUE/PLASMA% (mean±SEM) Cerebellum” value [3] was 5.28 (± 0.56) %. The “RTISSUE/PLASMA% (mean±SEM) Choroid plexus” value [3] was 385.74 (± 24.35) %, the “RTISSUE/PLASMA% (mean±SEM) Corpus callosum” value [3] was 5.32 (± 1.47) % and the “RTISSUE/PLASMA% (mean±SEM) Frontal cortex” value [3] was 4.88 (± 1.18) %. The “RTISSUE/PLASMA% (mean±SEM) Hippocampus” value [3] was 3.48 (± 0.94) %, the “RTISSUE/PLASMA% (mean±SEM) Homogenate” value [3] was 4.03 (± 0.78) % and the “RTISSUE/PLASMA% (mean±SEM) Hypothalamus” value [3] was 5.96 (± 1.23) %. The “RTISSUE/PLASMA% (mean±SEM) Occipital cortex” value [3] was 4.56 (±0.87) %, the “RTISSUE/PLASMA% (mean±SEM) Pellet” value [3] was 4.11 (± 1.24) % and the “RTISSUE/PLASMA% (mean±SEM) Pineal gland” value [3] was 367.59 (± 39.97) %. For the same substance, the “RTISSUE/PLASMA% (mean±SEM) Pituitary gland” value [3] was 251.21 (± 66.80) %, the “RTISSUE/PLASMA% (mean±SEM) Pons” value [3] was 7.81 (± 0.90) % and the “RTISSUE/PLASMA% (mean±SEM) Supernatant” value [3] was 2.54 (± 0.39) %. The “RTISSUE/PLASMA% (mean±SEM) Thalamus” value [3] was 4.34 (± 0.83) %, the “RTISSUE/PLASMA% (mean±SEM) Caudate putamen” value [4] was 5.40 (± 1.00) % and the “RTISSUE/PLASMA% (mean±SEM) Cerebellum” value [4] was 6.54 (± 0.70) %. For the same substance, the “RTISSUE/PLASMA% (mean±SEM) Choroid plexus” value [4] was 535.95 (± 107.86) %, the “RTISSUE/PLASMA% (mean±SEM) Corpus callosum” value [4] was 9.17 (± 2.67) % and the “RTISSUE/PLASMA% (mean±SEM) Frontal cortex” value [4] was 6.23 (± 0.92) %. The “RTISSUE/PLASMA% (mean±SEM) Hippocampus” value [4] was 5.60 (± 1.43) %, the “RTISSUE/PLASMA% (mean±SEM) Homogenate” value [4] was 6.20 (± 0.97) % and the “RTISSUE/PLASMA% (mean±SEM) Hypothalamus” value [4] was 8.14 (± 1.75) %. The “RTISSUE/PLASMA% (mean±SEM) Occipital cortex” value [4] was 5.67 (± 0.99) %, the “RTISSUE/PLASMA% (mean±SEM) Pellet” value [4] was 13.19 (± 1.79) % and the “RTISSUE/PLASMA% (mean±SEM) Pineal gland” value [4] was 361.76 (± 79.03) %. For the same substance, the “RTISSUE/PLASMA% (mean±SEM) Pituitary gland” value [4] was 203.27(± 32.85) %, the “RTISSUE/PLASMA% (mean±SEM) Pons” value [4] was 10.72 (± 1.82) % and the “RTISSUE/PLASMA% (mean±SEM) Supernatant” value [4] was 3.00 (± 0.43) %. The “RTISSUE/PLASMA% (mean±SEM) Thalamus” value [4] was 5.95 (± 0.92) %, the “Accumulation corrected for vascular space, hippocampus” value (30 minutes of perfusion) was 6.9% and the “Accumulation corrected for vascular space, hypothalamus” value (30 minutes of perfusion) was 15%. For the same substance, the “Accumulation corrected for vascular space, pons” value (30 minutes of perfusion) was 10.9%, the “RTISSUE/PLASMA% (mean ± SEM) of [^3H]pentamidine” value (shortened to “RTISSUE/PLASMA% (mean ± SEM)”) (Caudate putamen, 0.01% F68 + 15.7 nM pent) was 6.90 (± 1.58) % and the “RTISSUE/PLASMA% (mean ± SEM)” value (Caudate putamen, 0.1% F68 + 15.7 nM pent) was 10.41 (± 1.18) %. For the same substance, the “RTISSUE/PLASMA% (mean ± SEM)” value (Caudate putamen, 0.5% F68 + 15.7 nM pent) was 13.07 (± 3.45) %, the “RTISSUE/PLASMA% (mean ± SEM)” value (Caudate putamen, Control (15.7 nM pent)) was 8.65 (± 0.28) % and the “RTISSUE/PLASMA% (mean ± SEM)” value (Cerebellum, 0.01% F68 + 15.7 nM pent) was 9.38 (± 2.47) %. For the same substance, the “RTISSUE/PLASMA% (mean ± SEM)” value (Cerebellum, 0.1% F68 + 15.7 nM pent) was 14.44 (± 2.47) %.
